Test results as given in ChEMBL document CHEMBL3872264, “Discovery of biphenyl imidazole derivatives as potent antifungal agents: Design, synthesis, and structure-activity relationship studies” (Bioorg Med Chem, 2017).
≈ marks a conversion by molar mass, not a printed value.

Target: T1, Lanosterol 14-alpha demethylase (Candida albicans (strain SC5314 / ATCC MYA-2876) (Yeast), UniProt P10613)
Experiment: Inhibition of Candida albicans SC5314 CYP51 assessed as eburicol composition of total sterols at 8 ug/ml by GC-MS method relative to control
Set-up: scale not given: the % may be the effect or the level left
Details: at 8 µg/mL

T1 sequence (P10613 whole entry): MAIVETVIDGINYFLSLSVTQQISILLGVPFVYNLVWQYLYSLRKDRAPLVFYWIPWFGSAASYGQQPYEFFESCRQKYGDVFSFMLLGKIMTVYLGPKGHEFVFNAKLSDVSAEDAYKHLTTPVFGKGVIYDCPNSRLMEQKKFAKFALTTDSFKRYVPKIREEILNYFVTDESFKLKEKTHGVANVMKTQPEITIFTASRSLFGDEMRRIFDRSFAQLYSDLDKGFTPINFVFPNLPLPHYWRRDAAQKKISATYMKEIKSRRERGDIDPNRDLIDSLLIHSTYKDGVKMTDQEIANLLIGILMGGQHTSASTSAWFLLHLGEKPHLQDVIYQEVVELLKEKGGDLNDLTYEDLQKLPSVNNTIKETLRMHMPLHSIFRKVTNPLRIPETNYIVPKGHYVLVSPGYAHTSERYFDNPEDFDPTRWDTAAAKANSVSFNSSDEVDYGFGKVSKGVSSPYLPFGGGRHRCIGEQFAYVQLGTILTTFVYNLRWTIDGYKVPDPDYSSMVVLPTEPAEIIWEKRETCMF

Row | Compound | Activity [%]
1 | OC(Cn1cncn1)(Cn1cncn1)c1ccc(F)cc1F [FLUCONAZOLE] | 68.1
2 | CC(C)COC(=O)[C@H](Cn1ccnc1)NC(=O)c1ccc(-c2ccccc2F)cc1 | 65.1

Target: T1, Lanosterol 14-alpha demethylase
Experiment: Inhibition of Candida albicans SC5314 CYP51 assessed as change in total sterol composition at 8 ug/ml by GC-MS method (reference value: 7.1 %)
Set-up: scale not given: the % may be the effect or the level left
Details: at 8 µg/mL

Row | Compound | Activity [%]
3 | OC(Cn1cncn1)(Cn1cncn1)c1ccc(F)cc1F [FLUCONAZOLE] | 4.9
4 | CC(C)COC(=O)[C@H](Cn1ccnc1)NC(=O)c1ccc(-c2ccccc2F)cc1 | 6.2

System: Candida albicans
Experiment: Anti-fungal activity against fluconazole-resistant Candida albicans 100 by broth microdilution method
Type: functional
Details: not given

Row | Compound | MIC [µg/mL]
5 | OC(Cn1cncn1)(Cn1cncn1)c1ccc(F)cc1F [FLUCONAZOLE] | > 64
6 | CC(C)OC(=O)[C@H](Cn1ccnc1)NC(=O)c1ccc(-c2ccccc2F)cc1 | 8 (≈ 20.2 µM)
7 | CC(C)COC(=O)[C@H](Cn1ccnc1)NC(=O)c1ccc(-c2ccccc2F)cc1 | 2 (≈ 4.88 µM)

Target: T1, Lanosterol 14-alpha demethylase
Experiment: Inhibition of Candida albicans SC5314 CYP51 assessed as lanosterol composition of total sterols at 8 ug/ml by GC-MS method (reference value: 3.5 %)
Set-up: scale not given: the % may be the effect or the level left
Details: at 8 µg/mL

Row | Compound | Activity [%]
8 | OC(Cn1cncn1)(Cn1cncn1)c1ccc(F)cc1F [FLUCONAZOLE] | 18.2
9 | CC(C)COC(=O)[C@H](Cn1ccnc1)NC(=O)c1ccc(-c2ccccc2F)cc1 | 19.6

System: Candida tropicalis
Experiment: Anti-fungal activity against Candida tropicalis CGMCC 2.3739 by broth microdilution method
Type: functional
Details: not given

Row | Compound | MIC [µg/mL]
10 | CC(C)OC(=O)[C@H](Cn1ccnc1)NC(=O)c1ccc(-c2ccc(F)cc2)cc1 | 0.5 (≈ 1.26 µM)
11 | CC(C)NC(=O)[C@H](Cn1ccnc1)NC(=O)c1ccc(-c2ccccc2)cc1 | > 16
12 | CC(C)OC(=O)[C@H](Cn1ccnc1)NC(=O)c1ccc(-c2ccc(OC(F)(F)F)cc2)cc1 | 0.5 (≈ 1.08 µM)
13 | CC(C)OC(=O)[C@H](Cn1ccnc1)NC(=O)c1ccc(-c2cccc(C#N)c2)cc1 | 8 (≈ 19.9 µM)
14 | OC(Cn1cncn1)(Cn1cncn1)c1ccc(F)cc1F [FLUCONAZOLE] | 1 (≈ 3.27 µM)
15 | CC(C)OC(=O)[C@H](Cn1ccnc1)NC(=O)c1ccc(-c2ccccc2F)cc1 | 0.0625 (≈ 0.158 µM)
16 | CC(C)COC(=O)[C@H](Cn1ccnc1)NC(=O)c1ccc(-c2ccccc2F)cc1 | 0.0312 (≈ 0.0763 µM)

System: Candida albicans
Experiment: Anti-fungal activity against Candida albicans SC5314 by broth microdilution method
Type: functional
Details: not given

Row | Compound | MIC [µg/mL]
17 | CC(C)OC(=O)[C@H](Cn1ccnc1)NC(=O)c1ccc(-c2ccc(F)cc2)cc1 | 1 (≈ 2.53 µM)
18 | CC(C)NC(=O)[C@H](Cn1ccnc1)NC(=O)c1ccc(-c2ccccc2)cc1 | > 16
19 | CC(C)OC(=O)[C@H](Cn1ccnc1)NC(=O)c1ccc(-c2ccc(OC(F)(F)F)cc2)cc1 | 0.125 (≈ 0.271 µM)
20 | CC(C)OC(=O)[C@H](Cn1ccnc1)NC(=O)c1ccc(-c2cccc(C#N)c2)cc1 | > 16
21 | OC(Cn1cncn1)(Cn1cncn1)c1ccc(F)cc1F [FLUCONAZOLE] | 0.5 (≈ 1.63 µM)
22 | CC(C)OC(=O)[C@H](Cn1ccnc1)NC(=O)c1ccc(-c2ccccc2F)cc1 | 0.0625 (≈ 0.158 µM)
23 | CC(C)COC(=O)[C@H](Cn1ccnc1)NC(=O)c1ccc(-c2ccccc2F)cc1 | 0.0312 (≈ 0.0763 µM)

System: Cryptococcus neoformans
Experiment: Anti-fungal activity against Cryptococcus neoformans CGMCC 2.3161 by broth microdilution method
Type: functional
Details: not given

Row | Compound | MIC [µg/mL]
24 | CC(C)OC(=O)[C@H](Cn1ccnc1)NC(=O)c1ccc(-c2ccc(F)cc2)cc1 | > 16
25 | CC(C)NC(=O)[C@H](Cn1ccnc1)NC(=O)c1ccc(-c2ccccc2)cc1 | > 16
26 | CC(C)OC(=O)[C@H](Cn1ccnc1)NC(=O)c1ccc(-c2ccc(OC(F)(F)F)cc2)cc1 | 16 (≈ 34.7 µM)
27 | CC(C)OC(=O)[C@H](Cn1ccnc1)NC(=O)c1ccc(-c2cccc(C#N)c2)cc1 | > 16
28 | OC(Cn1cncn1)(Cn1cncn1)c1ccc(F)cc1F [FLUCONAZOLE] | 4 (≈ 13.1 µM)
29 | CC(C)OC(=O)[C@H](Cn1ccnc1)NC(=O)c1ccc(-c2ccccc2F)cc1 | 1 (≈ 2.53 µM)
30 | CC(C)COC(=O)[C@H](Cn1ccnc1)NC(=O)c1ccc(-c2ccccc2F)cc1 | 0.5 (≈ 1.22 µM)

System: Candida albicans
Experiment: Anti-fungal activity against Candida albicans CPCC 400523 by broth microdilution method
Type: functional
Details: not given

Row | Compound | MIC [µg/mL]
31 | CC(C)OC(=O)[C@H](Cn1ccnc1)NC(=O)c1ccc(-c2ccc(F)cc2)cc1 | 8 (≈ 20.2 µM)
32 | CC(C)NC(=O)[C@H](Cn1ccnc1)NC(=O)c1ccc(-c2ccccc2)cc1 | > 16
33 | CC(C)OC(=O)[C@H](Cn1ccnc1)NC(=O)c1ccc(-c2ccc(OC(F)(F)F)cc2)cc1 | 0.125 (≈ 0.271 µM)
34 | CC(C)OC(=O)[C@H](Cn1ccnc1)NC(=O)c1ccc(-c2cccc(C#N)c2)cc1 | > 16
35 | OC(Cn1cncn1)(Cn1cncn1)c1ccc(F)cc1F [FLUCONAZOLE] | 1 (≈ 3.27 µM)
36 | CC(C)OC(=O)[C@H](Cn1ccnc1)NC(=O)c1ccc(-c2ccccc2F)cc1 | 0.25 (≈ 0.632 µM)
37 | CC(C)COC(=O)[C@H](Cn1ccnc1)NC(=O)c1ccc(-c2ccccc2F)cc1 | 0.125 (≈ 0.305 µM)

System: Aspergillus fumigatus
Experiment: Anti-fungal activity against Aspergillus fumigatus CGMCC 3.7795 by broth microdilution method
Type: functional
Details: not given

Row | Compound | MIC [µg/mL]
38 | CC(C)OC(=O)[C@H](Cn1ccnc1)NC(=O)c1ccc(-c2ccc(F)cc2)cc1 | > 16
39 | CC(C)NC(=O)[C@H](Cn1ccnc1)NC(=O)c1ccc(-c2ccccc2)cc1 | > 16
40 | CC(C)OC(=O)[C@H](Cn1ccnc1)NC(=O)c1ccc(-c2ccc(OC(F)(F)F)cc2)cc1 | > 16
41 | CC(C)OC(=O)[C@H](Cn1ccnc1)NC(=O)c1ccc(-c2cccc(C#N)c2)cc1 | > 16
42 | OC(Cn1cncn1)(Cn1cncn1)c1ccc(F)cc1F [FLUCONAZOLE] | > 16
43 | CC(C)OC(=O)[C@H](Cn1ccnc1)NC(=O)c1ccc(-c2ccccc2F)cc1 | > 16
44 | CC(C)COC(=O)[C@H](Cn1ccnc1)NC(=O)c1ccc(-c2ccccc2F)cc1 | > 16

Target: T1, Lanosterol 14-alpha demethylase
Experiment: Inhibition of Candida albicans SC5314 CYP51 assessed as ergosterol composition of total sterols at 8 ug/ml by GC-MS method (reference value: 89.4 %)
Set-up: scale not given: the % may be the effect or the level left
Details: at 8 µg/mL

Row | Compound | Activity [%]
45 | OC(Cn1cncn1)(Cn1cncn1)c1ccc(F)cc1F [FLUCONAZOLE] | 2
46 | CC(C)COC(=O)[C@H](Cn1ccnc1)NC(=O)c1ccc(-c2ccccc2F)cc1 | 2.5

System: Candida albicans
Experiment: Anti-fungal activity against fluconazole-resistant Candida albicans 103 by broth microdilution method
Type: functional
Details: not given

Row | Compound | MIC [µg/mL]
47 | OC(Cn1cncn1)(Cn1cncn1)c1ccc(F)cc1F [FLUCONAZOLE] | > 64
48 | CC(C)OC(=O)[C@H](Cn1ccnc1)NC(=O)c1ccc(-c2ccccc2F)cc1 | 4 (≈ 10.1 µM)
49 | CC(C)COC(=O)[C@H](Cn1ccnc1)NC(=O)c1ccc(-c2ccccc2F)cc1 | 4 (≈ 9.77 µM)

Target: T1, Lanosterol 14-alpha demethylase
Experiment: Inhibition of Candida albicans SC5314 CYP51 assessed as obtusifoliol composition of total sterols at 8 ug/ml by GC-MS method relative to control
Set-up: scale not given: the % may be the effect or the level left
Details: at 8 µg/mL

Row | Compound | Activity [%]
50 | OC(Cn1cncn1)(Cn1cncn1)c1ccc(F)cc1F [FLUCONAZOLE] | 6.8
51 | CC(C)COC(=O)[C@H](Cn1ccnc1)NC(=O)c1ccc(-c2ccccc2F)cc1 | 6.6
